Assay results reported in patent US10413505B1, “Pharmaceutical compositions and methods of using the same” (priority 2017, dated 2019).

Key:
[1] = test system: Sprague Dawley rats; assay: Example 9 benzoylecgonine intranasal toxicity, Single-Dose Phase; assay type: in vivo, rat
Method: Benzoylecgonine in the vehicle (deionized water) was administered by intranasal instillation once to a group (Group 2) of Sprague Dawley rats at a dose level of 8.8 mg/kg. […] The dose volume was 0.22 mL/kg, divided between the 2 nares, for both groups. Groups 1 and 2 each consisted of 20 animals/sex. Following dose administration, 9 to 10 animals/sex/group were euthanized on Study Day 1; the remaining 10 animals/sex/group were euthanized following a 14-day nondosing (recovery) period. Criteria for evaluation included daily mortality observations, daily clinical observations, detailed physical observations, body weights, food consumption, clinical pathology (hematology, coagulation, serum chemistry, and urinalysis), organ weights, gross pathology, and microscopic examination of select tissues.
(§1) Organization of Test Groups, Dosage Levels, and Treatment Regimen—The vehicle and test article formulations were administered by intranasal instillation into each naris via a syringe equipped with stainless steel-shafted, stainless steel ball-tipped dosing cannula once (Single-Dose Phase) or once daily for 14 consecutive days (Repeat-Dose Phase), through the day prior to the primary necropsy. The same syringe and dosing cannula was used to administer the dose across both nares for a given animal on a given dosing day. The total dose volume administered per dose was split approximately equally across each naris, such that approximately half of the total dose volume was administered into one naris, and the remaining was administered into the other naris. Treatment administration across each naris for an individual animal occurred at approximately the same time. The dose volume for all groups was 0.22 mL/kg. Individual doses were based on the most recently recorded body weights. Adjusted doses became effective the day of collection of the weekly body weights. The first day of dosing was Study Day 0; the first week of dosing was Study Week 0.
(§2) All animals were observed twice daily, once in the morning and once in the afternoon, for mortality and moribundity. Animals found dead were examined macroscopically as soon as possible to ensure that tissues were not lost due to autolysis.
(§3) Clinical examinations were performed at the time of dose administration and 1 to 2 hours following dose administration. During the recovery period, the animals were observed once daily. The absence or presence of findings was recorded for individual animals at the scheduled intervals. For the Single-Dose Phase, detailed physical examinations were conducted on all animals within 4 days of receipt, on the day of randomization, and on Study Days 0, 1 (for animals scheduled for necropsy), 7, and 14. For the Repeat-Dose Phase, detailed physical examinations were conducted on all animals within 4 days of receipt, on the day of randomization, weekly (t 2 days) during the study period, and on the day of the scheduled necropsies (see Appendix 1—Study Protocol and Deviations). Daily observations during the recovery period were not necessary on days when detailed physical examinations were conducted.
(§4) Individual body weights were recorded within 4 days of receipt, on the day of randomization, Study Day 0 (prior to dosing), weekly (±2 days) during the study period, and on the day prior to the scheduled necropsies (nonfasted). Mean body weights and mean body weight changes were calculated for the corresponding intervals. Final body weights (fasted) were recorded on the day of the scheduled necropsies.
(§5) Cage food weights were recorded once weekly (±2 days) beginning following randomization and throughout the study period. Food consumption was calculated as g/animal/day for the corresponding body weight intervals.
(§6) Blood and urine samples for clinical pathology evaluations (hematology, coagulation, serum chemistry, and urinalysis) were collected from all animals assigned to the scheduled necropsies. […]

[2] = test system: Sprague Dawley rats; assay: Example 9 benzoylecgonine intranasal toxicity, Repeat-Dose Phase; assay type: in vivo, rat
Method: Benzoylecgonine in the vehicle was administered by intranasal instillation once daily for 14 days to a group (Group 2) of Sprague Dawley rats at a dosage level of 8.8 mg/kg/day. […] The dose volume was 0.22 mL/kg, divided between the 2 nares, for both groups. Groups 1 and 2 each consisted of 15 animals/sex. Following 14 days of dose administration, 10 animals/sex/group were euthanized; the remaining 5 animals/sex/group were euthanized following a 14-day nondosing (recovery) period. Criteria for evaluation included daily mortality observations, daily clinical observations, detailed physical observations, body weights, food consumption, clinical pathology (hematology, coagulation, serum chemistry, and urinalysis), organ weights, gross pathology, and microscopic examination of select tissues.
as §1, §2, §3, §4, §5, §6

[3] = Literature disposition of cocaine (intravenous clearance, urinary elimination); assay type: in vivo, human; conditions: humans
From the text: In humans, cocaine is eliminated predominantly by metabolism, with little excreted unchanged in the urine. Only 1% to 10% of a dose of cocaine is eliminated unmetabolized in urine.

[4] = 8.8 mg/kg once, intranasal instillation
[5] = 8.8 mg/kg/day for 14 days, intranasal instillation

With `CN1[C@H]2CC[C@@H]1[C@@H](C(=O)O)[C@@H](OC(=O)c1ccccc1)C2` [BE, benzoylecgonine] the body weights [1, 4] was “unaffected”, the clinical observations [1, 4] was “no test article-related clinical observations” and the food consumption [1, 4] was “unaffected”. For the same molecule, the “hematology and coagulation parameters” value [1, 4] was “unaffected”, the “macroscopic examination at necropsy” value [1, 4] was “No test article-related macroscopic findings” and the organ weights [1, 4] was “No test article-related organ weight findings”. For the same molecule, the serum chemistry parameters [1, 4] was “unaffected”, the survival [1, 4] was “no test article-related effects on survival” and the urinalysis parameters [1, 4] was “unaffected”. For the same molecule, the “microscopic examination (nasal cavity with turbinates)” value ([1]; 8.8 mg/kg once, intranasal instillation, also after 14-day recovery) was “No test article-related microscopic findings”, the “pH of the dosing formulation” value ([1]; Single-Dose Phase, 40 mg/mL in deionized water, pH meter) was 6.32 and the tolerability ([2]; 8.8 mg/kg once or once daily for 14 days, intranasal instillation) was “well tolerated”. The clinical observations [2, 5] was “no test article-related clinical observations”, the food consumption [2, 5] was “unaffected” and the “hematology and coagulation parameters” value [2, 5] was “unaffected”. The “macroscopic examination at necropsy” value [2, 5] was “No test article-related macroscopic findings”, the organ weights [2, 5] was “No test article-related organ weight findings” and the serum chemistry parameters [2, 5] was “unaffected”. The survival [2, 5] was “All animals survived”, the urinalysis parameters [2, 5] was “unaffected” and the “microscopic examination (nasal cavity with turbinates)” value ([2]; 8.8 mg/kg/day for 14 days, intranasal instillation, also after 14-day recovery) was “No test article-related microscopic findings”. For the same molecule, the body weights ([2]; 8.8 mg/kg/day for 14 days, intranasal instillation, dosing period) was “unaffected”, the “pH of the dosing formulation” value ([2]; Repeat-Dose Phase, 40 mg/mL in deionized water, pH meter) was 6.32 and the “no-observed-effect level (NOEL)” value ([2]; intranasal instillation once or once daily for 14 days) was 8.8 mg/kg/day.
In the case of `COC(=O)[C@H]1[C@@H](OC(=O)c2ccccc2)C[C@@H]2CC[C@H]1N2C` [Cocaine, cocaine, reference compound], the “CLr as percent of CL” value [3] is reported as “less than 2%” and the “CLr as percent of human glomerular filtration rate (125 mL/min)” value [3] is reported as “less than 40%”.
